11 molecules from ChEMBL document CHEMBL1201862, “PubChem BioAssay data set” (2004) can be followed below.

Structures are written as SMILES. Where “and” joins values, the source holds several entries; their conditions need not be identical. Identical values can stand only once.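 How tested: cells in 96-well plates exposed to compound for 48 hours at five concentrations. The concentration for 50% growth inhibition is given as GI50.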 Calls of active or inactive are those of the source. No stated cut-off is given here; in the data, active = GI50 up to about 1.1 µM and inactive = higher. Some results are limits rather than exact numbers.

Test systems include SN12C; SNB-19; SK-MEL-28; UACC-62; ACHN; KM12; DU-145; A549; COLO 205; K562; UACC-257; HCC 2998; SK-MEL-5; HOP-92; SR; TK-10; SF-539; EKVX; NCI-H460; BT-549.
Experiment in all cases: NCI-60 cell line screen, 48 h

For `CCCC/C=C1/CCC(CN(C)C)C1=O` (stereo not drawn), the GI50 in the experiment on SN12C is 1.87 µM (inactive); with SNB-19, 5.97 µM (inactive); with SK-MEL-28 it was 1.92 µM (inactive); with UACC-62, 2.09 µM (inactive); in the experiment with ACHN, 2.05 µM (inactive); in the experiment with KM12, 0.673 µM (active). The GI50 in the experiment on DU-145 was 15.6 µM (inactive); with A549, 6.58 µM (inactive); in the experiment on COLO 205, 1.42 µM (inactive); in the experiment with K562 it was 0.701 µM (active); in the experiment with UACC-257, 2.17 µM (inactive); in the experiment with HCC 2998, 1.56 µM (inactive). In addition, the GI50 in the experiment with SK-MEL-5 was 9.02 µM (inactive); with HOP-92, 2.07 µM (inactive); in the experiment on SR, 0.456 µM (active); in the experiment on TK-10 it was 1.01 µM (active); with SF-539 it was 2.48 µM (inactive).
In the case of `COc1cc2c(cc1OC)C1Cc3ccccc3CN1CCC2` (stereo not drawn), the GI50 with SN12C, with SNB-19, in the experiment with SK-MEL-28, in the experiment with UACC-62, with ACHN and in the experiment with KM12 was > 100 µM (inactive) each time. For the same molecule, the GI50 with DU-145 was > 100 µM (inactive); in the experiment with A549, > 100 µM (inactive); in the experiment with COLO 205 it was > 100 µM (inactive); with K562 it was 50 µM (inactive); with UACC-257, > 100 µM (inactive); in the experiment on EKVX, > 100 µM (inactive). Besides, the GI50 with HCC 2998 is > 100 µM (inactive); in the experiment on SK-MEL-5, > 100 µM (inactive); in the experiment with HOP-92, 92.9 µM (inactive); in the experiment with NCI-H460, > 100 µM (inactive); in the experiment with SR, > 100 µM (inactive); in the experiment on TK-10, > 100 µM (inactive). In addition, the GI50 with SF-539 was > 100 µM (inactive).
For the molecule `CC(=O)OCC1OC(n2c(C)c(C(C)=O)c(-c3ccco3)c(C#N)c2=S)C(OC(C)=O)C(OC(C)=O)C1OC(C)=O` (stereo not drawn), the GI50 in the experiment with SN12C, in the experiment with SNB-19, with SK-MEL-28, in the experiment with UACC-62, in the experiment on ACHN and with KM12 was > 100 µM (inactive) in each case. Moreover, the GI50 in the experiment on DU-145 was > 100 µM (inactive); with A549, > 100 µM (inactive); in the experiment with COLO 205, > 100 µM (inactive); in the experiment on K562, > 100 µM (inactive) and 51.1 µM (inactive); in the experiment with UACC-257, > 100 µM (inactive); in the experiment with EKVX it was > 100 µM (inactive). For the same molecule, the GI50 was > 100 µM (inactive) with HCC 2998; 78.5 µM (inactive) in the experiment with SK-MEL-5; 15.6 µM (inactive) in the experiment on HOP-92; > 100 µM (inactive) in the experiment on NCI-H460; > 100 µM (inactive) with SR; > 100 µM (inactive) with TK-10. Further, the GI50 in the experiment with SF-539 was > 100 µM (inactive).
For `O=CC1C(=O)Nc2nc3ccccc3n2C1c1ccccc1` (stereo not drawn), the GI50 was 5.7 µM (inactive) in the experiment on SN12C; 19.6 µM (inactive) in the experiment with SK-MEL-28; 15.7 µM (inactive) with UACC-62; 17.3 µM (inactive) with ACHN; 14.6 µM (inactive) in the experiment with KM12; 12.7 µM (inactive) in the experiment on DU-145. Moreover, the GI50 in the experiment on A549 was 23.3 µM (inactive); in the experiment on COLO 205 it was 11.4 µM (inactive); in the experiment on K562, 4.37 µM (inactive); with UACC-257, 15 µM (inactive); with EKVX it was 22.5 µM (inactive); with SK-MEL-5, 14.6 µM (inactive). Moreover, the GI50 is 14.1 µM (inactive) with BT-549; 12.4 µM (inactive) in the experiment with HOP-92; 29.4 µM (inactive) in the experiment with NCI-H460; 28.6 µM (inactive) in the experiment on TK-10; 17.9 µM (inactive) with SF-539.
For `Nc1c(Br)cc(-c2cc(Br)c(N)c(Br)c2)cc1Br`, the GI50 with SN12C, with SNB-19, with SK-MEL-28, with UACC-62, with ACHN and in the experiment with KM12 was > 100 µM (inactive) in each case. In addition, the GI50 in the experiment on DU-145, in the experiment with A549, in the experiment with COLO 205, in the experiment with K562, in the experiment with UACC-257 and in the experiment with EKVX was > 100 µM (inactive) throughout. Further, the GI50 with HCC 2998, in the experiment with SK-MEL-5, in the experiment with HOP-92, with NCI-H460, in the experiment on SR and with TK-10 was > 100 µM (inactive) throughout. The GI50 with SF-539 was > 100 µM (inactive).
With `O=C1/C(=C/c2ccc(Cl)cc2)N=C(c2ccccc2)N1C1Nc2cc3c(cc2S1)NC(N1C(=O)/C(=C/c2ccc(Cl)cc2)N=C1c1ccccc1)S3` (stereo not drawn), the GI50 in the experiment on SK-MEL-28 is > 100 µM (inactive); in the experiment on ACHN it was > 100 µM (inactive); in the experiment with KM12, 54 µM (inactive); in the experiment with DU-145 it was 46.3 µM (inactive); with K562, 21.2 µM (inactive); in the experiment on UACC-257, > 100 µM (inactive). Besides, the GI50 was > 100 µM (inactive) in the experiment with EKVX; 61.1 µM (inactive) with HCC 2998; 34.2 µM (inactive) with SK-MEL-5; 48.6 µM (inactive) in the experiment with HOP-92; 30.4 µM (inactive) in the experiment with NCI-H460; 6.18 µM (inactive) in the experiment with SR. Moreover, the GI50 with TK-10 and with SF-539 was > 100 µM (inactive) throughout.
As for `COc1ccc(/C=C2/C(=O)N(/C=C3\C(=O)Oc4ccccc4C3=O)/C(=N/C(C)=O)N2C)cc1OC`, the GI50 with SN12C, with SK-MEL-28, with UACC-62, in the experiment on ACHN, in the experiment on KM12 and in the experiment with DU-145 was > 100 µM (inactive) each time. Moreover, the GI50 in the experiment with A549, in the experiment with COLO 205, in the experiment on K562, with UACC-257, in the experiment with EKVX and with HCC 2998 was > 100 µM (inactive) each time. In addition, the GI50 in the experiment on SK-MEL-5, in the experiment on NCI-H460, in the experiment with SR and with SF-539 was > 100 µM (inactive) in each case.
Regarding `C/C(=C\COP(=O)(O)OP(=O)(O)O)CC/C=C(\C)CNc1c(F)c(F)c(F)c(F)c1F`, the GI50 is > 56.1 µM (inactive) in the experiment with SN12C; > 100 µM (inactive) in the experiment on SNB-19; > 100 µM (inactive) in the experiment on SK-MEL-28; > 51.9 µM (inactive) with UACC-62; > 100 µM (inactive) with ACHN; > 100 µM (inactive) in the experiment with KM12. Moreover, the GI50 in the experiment with DU-145 was > 67.6 µM (inactive); in the experiment with A549 it was > 48.6 µM (inactive); in the experiment with COLO 205 it was > 100 µM (inactive); in the experiment with K562 it was > 100 µM (inactive); with UACC-257, > 70.3 µM (inactive); in the experiment with EKVX, > 54.3 µM (inactive). For the same molecule, the GI50 was > 100 µM (inactive) in the experiment with HCC 2998; > 100 µM (inactive) with SK-MEL-5; 82.2 µM (inactive) with HOP-92; > 100 µM (inactive) with NCI-H460; 0.0695 µM (active) in the experiment on SR; > 51.1 µM (inactive) in the experiment on TK-10. Also, the GI50 in the experiment on SF-539 is 97.1 µM (inactive).
Turning to `c1cc2ccc3cc4ncccc4c4ccc(c1)c2c34`, the GI50 is 31.4 µM (inactive) in the experiment with SN12C; 90.8 µM (inactive) in the experiment with SNB-19; 43.1 µM (inactive) with SK-MEL-28; 20.6 µM (inactive) with UACC-62; 6.87 µM (inactive) with ACHN; 10.5 µM (inactive) in the experiment on KM12. The GI50 was 57.4 µM (inactive) in the experiment on DU-145; 9.31 µM (inactive) in the experiment with A549; 9.82 µM (inactive) in the experiment with COLO 205; 59.4 µM (inactive) in the experiment on K562; 56.8 µM (inactive) with UACC-257; 22.5 µM (inactive) in the experiment with EKVX. The GI50 in the experiment on HCC 2998 is 25.6 µM (inactive); in the experiment with HOP-92, 17.4 µM (inactive); in the experiment with NCI-H460, 5.05 µM (inactive); in the experiment on SR, < 0.01 µM (active); with TK-10 it was 22.8 µM (inactive); with SF-539 it was 20.9 µM (inactive).
As to `O=C(NCc1ccccc1)c1cnc(Cl)cn1`, the GI50 with SN12C was > 100 µM (inactive); in the experiment on SNB-19, 63.8 µM (inactive); with SK-MEL-28, > 100 µM (inactive); with UACC-62 it was > 100 µM (inactive); in the experiment on ACHN, 20.1 µM (inactive); in the experiment with KM12, > 100 µM (inactive). The GI50 is > 100 µM (inactive) with DU-145; > 100 µM (inactive) in the experiment with A549; > 100 µM (inactive) in the experiment with COLO 205; 53 µM (inactive) in the experiment on UACC-257; > 100 µM (inactive) in the experiment with EKVX; 17.3 µM (inactive) in the experiment with HCC 2998. Besides, the GI50 in the experiment with SK-MEL-5 is 54 µM (inactive); in the experiment on HOP-92, 13.7 µM (inactive); in the experiment on NCI-H460, > 100 µM (inactive); in the experiment with SR, 20.7 µM (inactive); with TK-10 it was > 100 µM (inactive); in the experiment on SF-539, > 100 µM (inactive).
Regarding `CCOC(=O)c1ccc(-c2cc(C)[nH]n2)[nH]1`, the GI50 is > 100 µM (inactive) in the experiment with SN12C; > 100 µM (inactive) in the experiment with SNB-19; > 100 µM (inactive) in the experiment on SK-MEL-28; > 100 µM (inactive) in the experiment with UACC-62; > 100 µM (inactive) in the experiment with ACHN; 62.5 µM (inactive) in the experiment on KM12. Besides, the GI50 in the experiment with DU-145 is > 100 µM (inactive); in the experiment on A549, > 100 µM (inactive); in the experiment on COLO 205, > 100 µM (inactive); in the experiment on UACC-257, > 100 µM (inactive); with EKVX, 54.1 µM (inactive); with SK-MEL-5, > 100 µM (inactive). Further, the GI50 with BT-549, in the experiment with HOP-92, in the experiment with NCI-H460, in the experiment with TK-10 and in the experiment with SF-539 was > 100 µM (inactive) throughout.
